Measured values: patent publication US20210030703A1, “USE OF CALORIC RESTRICTION MIMETICS FOR POTENTIATING CHEMO-IMMUNOTHERAPY FOR THE TREATMENT OF CANCERS” (INSERM (INSTITUT NATIONAL DE LA SANTÉ ET DE LA RECHERCHE …, priority 2018, published 2021)

Tests used:
[1] = test system: immune infiltrate of MCA205 tumors; experiment: Immunophenotyping of the tumor immune infiltrate by flow cytometry; assay type: in vivo, C57B1/6 mice; conditions: for Density of CD45+ leukocytes in the tumor: day 11 post-chemotherapy
Experimental: 3 or 11 days post-chemotherapy (d3 or d11), mice were euthanized and the tumors were withdrawn and placed in gentleMACS C tubes (ref 130-096-334 from Miltenyi BiotecTM) previously filled with 1 ml of DMEM or RPMI medium, and immediately put on ice. […] Then, cells were stained with a live dead dye (ref L34959 from ThermoFisher ScientificTM) and an FCblock receptor targeting antibody. For the surface stainings, several anti-mouse fluorochrome-coupled antibodies were employed, that were for 1) myeloid cells “staining 1”: anti-CD45 APC-Fire750 (clone 30E-11, ref 130154 BiolegendTM), anti-Ly-6G PE (clone 1A8, ref 551461 BDTM), anti-Ly-6C FITC (clone AL-21, ref 553104, BDTM), anti-CD11b V450 (clone M1/70, ref 560455 BDTM), anti-CD11c PE-Cy7 (clone HL3, ref 558470 BDTM), anti-CD80 PerCP-Cy5.5 (16-10A1, ref 104722 BiolegendTM), and anti-MHC-II APC (clone M5/114.15.2, ref 107614 BiolegendTM) 2) T-cells “staining 2”: anti-CD3 APC (clone 17A2, ref 17-0032-82 eBioscienceTM), anti-CD8 PE (clone 53-6.7, ref 553032 BDTM), anti-CD4 PerCP-Cy5.5 (clone RM4-5, ref 45-0042-82 eBioscienceTM), anti-CD25 PE-Cy7 (clone PC61.5, ref 25-0251-82 InvitrogenTM), anti-ICOS BV421 (clone 7E.17G9, ref 564070 BDTM) and anti-PD-1 APC-Fire750 (clone 29F.1Al2, ref 135240 BiolegendTM) 3) PD-L1 expressing-cells “staining 4”: anti-CD45 AlexaFluor647 (clone 30E-11, ref 103-124 BiolegendTM), anti-PD-L1 BV421 (clone MIHS, ref 564716 BDTM) and anti-PD-L2 PE-Dazzle594 (clone TY25, ref 107215 BiolegendTM) 4) NKT cells “staining 5”: anti-CD3 FITC (clone 17A2, ref 11-00-32-82 eBioscienceTM) and anti-NK1.1 PerCP-Cy5.5 (clone PK136, ref 551114 BDTM). After the fixation and permeabilization of the cells (thanks to the Cytofix/Cytoperm kit, ref 554714 BDTM for stainings 1, 3, 4 and 5; and with the Foxp3/Transcription Factor kit, ref 00-5523-00 eBioscienceTM for staining 2), intracellular stainings were performed using for “staining 2”: anti-FoxP3 FITC (clone FJK-16s, ref 11-5773-82 eBioscienceTM) and for “staining 3”: anti-IFNg APC (clone XMG1.2, ref 505-810 BiolegendTM), anti-TNFα APC-Cy7 (clone MP6-XT22, ref 506344 BiolegendTM) and anti-IL-2 PE-Dazzle 594 (clone JES6-5H4, ref 503-840 BiolegendTM). Finally, cells were resuspended in FACS buffer and analyzed on a flow cytometer BD LSR II.

MCA205 fibrosarcoma = experiment: Subcutaneous MCA205 fibrosarcoma: tumor growth, cure and survival under chemo-immunotherapy; assay type: in vivo, C57B1/6 mice; conditions: for Complete responses leading to tumor eradication: endpoint 50 days after chemotherapy; for Efficacy of MTX + ICIs (anti-PD-1 plus anti-CTLA-4) chemo-immunotherapy when the CRM is added: figure legends FIG. 2, 3, 4, 6
Experimental: Mouse strain and housing. Six- to 8-week-old wild-type female C57B1/6 mice were obtained from Envigo RMS SARL (Gannat, France). Animals were maintained in specific pathogen-free conditions in a temperature-controlled environment with 12 h light, 12 h dark cycles and received food and water ad libitum (unless precised otherwise). Animal experiments were in compliance with the EU Directive 63/2010 and approved by the Ethical Committee of the Cordeliers Research Center (Paris, France). All mouse experiments were randomized and blinded, and sample sizes were calculated to detect a statistically significant effect.
In vivo experimentations. Tumor engraftment was performed through subcutaneous injection of 3×10^5 MCA205 fibrosarcoma tumor cells (in 100 μl PBS) in the right flank of the mice. Tumor volume was monitored using a digital caliper and calculated according to the formula: volume=length×width×height/8×4/3 pi. When tumor reached 20 mm^3 on average, mice underwent fasting (48 hours without food but ad libitum access to water) or were given caloric restriction mimetics (CRMs) such as aspirin (Asp; 10 mg/kg i.p. in 200 μl phosphate buffered saline [PBS] five times per week), hydroxycitrate (HC; 5 mg/ml in drinking water daily) or spermidine (Spd; 50 mg/kg i.p. in 200 μl Earle's balanced salt solution three times per week), or were treated with mitoxantrone (MTX; 5.17 mg/kg i.p. in 200 μl PBS), or with the immune checkpoint inhibitors (ICIs) anti-PD-1 (10 mg/kg i.p. in 200 μl PBS) and/or anti-CTLA-4 (5 mg/kg i.p. in 200 μl PBS). Tumor size was carefully monitored up to 50 days post-MTX. Antitumor immunity induced by the treatment in cured mice was challenged by subcutaneously re-engrafting the same tumor (3×10^5 syngeneic MCA205 fibrosarcoma cells) in one flank while an antigenically unrelated cancer (3×10^5 syngeneic TC1 lung carcinoma cells) was implanted into the contralateral flank.
Statistical analyses. For tumor size comparison, Student unpaired t test or one-way ANOVA (Holm-Sidak) were performed. All statistical analyses were performed using GraphPad Prism version 6 for Windows (GraphPad Software, La Jolla, Calif., USA). Differences were considered significant when p value<0.05.

[2] = day 11 post-MTX, data not shown
[3] = HC + MTX chemotherapy + immunotherapy (anti-PD-1 plus anti-CTLA-4)

SMILES | Increase in the density of total CD3+ and CD8+ T cell infiltrate ([1]; combined with MTX, data not shown) | Myeloid infiltrate ([1]; day 3 post-chemotherapy (MTX), data not shown) | Granulocyte infiltration (Ly6C+Ly6Ghi) [1, 2] | Monocytic dendritic cell subpopulation with activation markers (Ly6G-Ly6ChiCD11b+CD11c+CD80+MHC-IIhi) [1, 2] | Density of CD45+ leukocytes in the tumor ([1]; MTX-treated animals that received HC) | Complete responses at day 30 (MCA205 fibrosarcoma; [3]) | Stable response (MCA205 fibrosarcoma; [3]) | Reduction of tumor growth (MCA205 fibrosarcoma; HC in drinking water + MTX chemotherapy + immunotherapy, versus all other groups) | Reduction of tumor growth and prolongation of survival (MCA205 fibrosarcoma; HC+MTX versus MTX alone, data not shown) | Complete responses leading to tumor eradication (MCA205 fibrosarcoma; MTX plus HC) | Tumor-free mice (MCA205 fibrosarcoma; MTX pre-treatment associated with the CRM, then CTLA-4/PD-1-blocking antibodies (FIG. 6)) | Efficacy of MTX + ICIs (anti-PD-1 plus anti-CTLA-4) chemo-immunotherapy when the CRM is added (MCA205 fibrosarcoma) | Efficacy of MTX + ICIs (anti-PD-1 plus anti-CTLA-4) chemo-immunotherapy when the CRM is added (MCA205 fibrosarcoma; listed as Hydroxycitrate) | Response to CTLA-4/PD-1-blockade (MCA205 fibrosarcoma; pretreated with the CRM alone (without MTX), data not shown) | Density of CD45+ leukocytes in the tumor ([1]; MTX-treated cancers) | Complete responses leading to tumor eradication (MCA205 fibrosarcoma; MTX plus immunotherapy (antibodies blocking CTLA-4 or PD-1)) | Complete responses leading to tumor eradication (MCA205 fibrosarcoma; MTX plus isotypes) | Complete cure (MCA205 fibrosarcoma; MTX pretreatment, then CTLA-4/PD-1-blocking antibodies from day 8 post-chemotherapy (FIG. 6))
O=C(O)CC(O)(C(=O)O)C(O)C(=O)O (stereo not drawn) [HC, hydroxycitrate] | neither HC nor spermidine | no major increments | increase | increase | more so | all animals of the group | 7 out of 8 | more efficient in reducing tumor growth than all other groups | more successful in reducing tumor growth and in prolonging survival than MTX alone | either not seen at all or rare | 7 out of 10 | further enhanced | enhances tumor growth control | did not respond |  |  |  | 
O=C1c2c(O)ccc(O)c2C(=O)c2c(NCCNCCO)ccc(NCCNCCO)c21 [MTX, mitoxantrone] |  |  |  |  |  |  |  |  |  |  |  |  |  |  | higher density | either not seen at all or rare | either not seen at all or rare | 3 out of 10
